Experimental data reported in patent publication US9707267B2, “Beta-turn peptidomimetic cyclic compounds for treating dry eye” (Mimetogen Pharmaceuticals, Inc., priority 2008, dated 2017).
Values joined by “and” are separate entries in the source; they are usually repeats but may differ in a detail not shown here. Equal entries are not always repeated.

How the values were obtained:
p42/44 MAPK = assay: Activation of p42/44 MAPK in goblet cells, Western blot (Example 2); type: cell-based, rat; details: 5 minutes, phospho-MAPK relative to actin
Protocol: The activation of p42/44 MAPK was examined using Western blot techniques. Goblet cells were serum starved in serum-free RPMI for 4-6 hrs prior to the addition of PMA (100 nM), NGF (1 or 10 nM), or MIM-D3 (10 or 50 μM) for 5 minutes at 37° C. After, cells were rinsed once in cold PBS, scraped in 100 μL of 1×SDS-PAGE sample buffer [62.5 mM Tris-HCl pH 6.8, 10% glycerol, 2% SDS, 5% β-mercaptoethanol, 0.02 mg/mL bromophenol blue] and sonicated for 20 minutes. The homogenates were centrifuged at 14,900 g for 15 min at 4° C. Proteins in a […] of the supernatant were separated by SDS-PAGE (8% acrylamide gels) and transferred to nitrocellulose membranes. The membranes were blocked for 2 hours in 5% non-fat dried milk in buffer containing 20 mM Tris-HCl, pH 8.0, 150 mM NaCl, and 0.01% Tween-20 (TBST). The blots were then probed with an antibody directed against the phosphorylated form of MAPK1/2 (Calbiochem, San Diego, Calif.) at 0.1 μg/mL in TBST containing 5% BSA overnight at 4° C., followed by a 1 hour incubation in HRP-conjugated secondary anti-mouse antibody (Sigma, St. Louis, Mo.) at room temperature in TBST containing 5% non-fat dried milk. Immunoreactive bands were visualized using the enhanced chemiluminescence method (Perkin Elmer, Waltham, Mass.). The blots were stripped at 55° C. for 30 minutes in stripping buffer [62.5 mM Tris-HCl pH 6.8, 2% SDS, 0.1M β-mercaptoethanol] followed by re-probing with an antibody directed against actin (1:5000 dilution, Sigma, St. Louis, Mo.) in TBST containing 5% non-fat dried milk and incubation in HRP-conjugated secondary anti-rabbit antibody. The immunoreactive bands were digitally scanned on an EPSON scanner and analyzed using NIH ImageJ v1.38x. The amount of phosphorylated MAPK in each sample was standardized to the amount of total actin protein in the sample.
To determine if compound D3 and NGF induced glycoconjugates secretion via activation of the MAPK pathway, cultured goblet cells from 3 independent rats were stimulated by 10 and 50 μM compound D3, 1 and 10 nM NGF or PMA (100 nM, the positive control) for 5 minutes and MAPK activity was measured by western blot analysis. A representative western blot from 3 independent rat goblet cell cultures is shown in FIG. 9, and the quantification is shown in FIG. 10. There was a statistically significant effect of treatment on MAPK activation (P<0.0001). Compound D3 increased MAPK activity above basal by 2.5±0.3 fold at 10 μM and 2.2±0.5 fold at 50 μM and NGF increased MAPK activity by 2.8±0.5 at 1 nM (P<0.05) and 1.7±0.2 at 10 nM.

[1] = tested on: Scopolamine Induced Rat Dry Eye Model; assay: Scopolamine induced rat dry eye model, mucin in tear fluid washings, ELLA (Example 5); type: in vivo; details: for Tear Mucin: ± SD
Protocol: (§1) Dry eye was induced using scopolamine hydrobromide (Sigma-Aldrich, St. Louis, Mo.), which was continuously and systemically delivered to the animals via an osmotic pump (2ML4 Alzet®; CedarLane, Burlington, Ontario) filled with scopolamine and implanted subcutaneously in the mid dorsal area between the scapulae. Scopolamine was delivered for a twenty-eight day period at 12.5 mg/day, which translated to 30.0±1.5 mg/kg via osmotic pump.
(§2) Treatments for G2-G6 continued daily for seventeen days (up to an including day twenty-one). Thereafter, treatments were terminated but the study continued for another week. During treatment, each animal was anesthetized in an isoflurane chamber. Once asleep, each animal received a 5 μL topical instillation of test article into the lower conjunctival sac of both eyes using a calibrated micropipette. If a clinical endpoint was also being tested, the test article was topically instilled at the end of the testing.
Tear fluid washings were collected from all six groups of rats on day 12 (after 7 daily treatments), day 19 (after 14 daily treatments) and day 28 (after treatment was stopped for 7 days) after instillation of 5 μL sterile saline in the lower conjunctival sac of the anaesthetized animal. The lids were blinked gently to mix the tear film with the saline. The diluted tear fluid was collected with a 5 μL volume glass capillary tube (Drummond Scientific Co, Broomhall, Pa.) by capillary action from the tear meniscus in the lateral canthus. Approximately 4-5 μL were routinely collected. In very dry eyes, a second 5 μL aliquot of saline was instilled before collection.
The concentrations of mucin glycoprotein in the diluted tear fluid washings were determined by an enzyme-linked lectin assay (ELLA). A sample containing 3 μg total protein was diluted to 100 μL in carbonate buffer pH 9.2 and transferred to a 96-well polystyrene microtiter plate (Corning Life Sciences #2592, Fisher Scientific, Nepean, Ontario). A dilution series of bovine submaxillary mucin (Sigma, St. Louis, Mo.) was included on each plate as the standard. The plates were coated by evaporation at 37° C. overnight. After, the plates were washed three times with wash buffer [PBS containing 0.3% BSA, 0.05% Tween-20] then blocked for nonspecific binding with PBS containing 3% BSA and 0.05% Tween-20 at 37° C. for one hour. The wells were rinsed three times in wash buffer, and then incubated in 2 μg/mL biotinylated UEA-1 diluted in wash buffer (Vector Labs, Burlingame, Calif.) at 37° C. for one hour. The wells were rinsed three times in wash buffer, and then incubated in 1 μg/mL HRP-conjugated neutravidin diluted in wash buffer (Pierce, Rockford, Ill.) at 37° C. for one hour. After the wells were rinsed three times in wash buffer the color development was performed with TMB (Promega, Madison, Wis.) and stopped with 0.5N Sulfuric acid. The concentration of mucin in the tear fluid washings was calculated as the ng mucin divided by the volume of tear fluid washing in μL that gave 3 μg total protein.

[2] = tested on: Scopolamine Induced Rat Dry Eye Model; assay: Scopolamine induced rat dry eye model, Schirmer test (Example 5); type: in vivo; details: ± SD
Protocol: as §1, §2
Tear production was monitored using the Schirmer test on days 5, 7, 14, 20 and 29 post induction of dry eye. Tear production was measured with Zone-Quick standardized phenol-red threads (FCI Ophthalmics, Marshfield Hills, Mass.) on animals lightly sedated with Isoflurane. The threads were inserted in the lateral lower canthus and left in place for thirty seconds. The length of the stained moistened portion of the thread was measured in millimeters, using the scale provided with the threads to an accuracy of 1 mm.

NCCCC[C@@H]1NC(=O)[C@H](CCC(=O)O)NC(=O)c2cc([N+](=O)[O-])ccc2OCCC(C(=O)NCC(=O)O)NC1=O (stereo partly drawn) [Compound D3]
MAPK activity above basal (p42/44 MAPK; 10 μM): 2.5±0.3 fold
MAPK activity above basal (p42/44 MAPK; 50 μM): 2.2±0.5 fold
Tear Mucin ([1]; 0.4% topical 1× daily Days 5-21, Day 12): 2.7 ± 2.2 ng/µL
Tear Mucin ([1]; 0.4% topical 1× daily Days 5-21, Day 19): 6.8 ± 3.2 ng/µL
Tear Mucin ([1]; 0.4% topical 1× daily Days 5-21, Day 28 (7 days after treatment stopped)): 4.4 ± 3.8 ng/µL
changes in mucin production at Day 28 as compared to Day 12 (in words) ([1]; 1% dose vs untreated and saline control groups): statistically significantly increased mucin production
Tear Mucin ([1]; 1.0% topical 1× daily Days 5-21, Day 12): 3.3 ng/µL and 3.3 ± 1.9 ng/µL
Tear Mucin ([1]; 1.0% topical 1× daily Days 5-21, Day 19): 9.1 ng/µL and 9.1 ± 5.1 ng/µL
Tear Mucin ([1]; 1.0% topical 1× daily Days 5-21, Day 28 (7 days after treatment stopped)): 6.8 ng/µL and 6.8 ± 4.9 ng/µL
Tear Mucin ([1]; 2.5% topical 1× daily Days 5-21, Day 12): 1.6 ± 0.9 ng/µL
Tear Mucin ([1]; 2.5% topical 1× daily Days 5-21, Day 19): 6.5 ± 2.4 ng/µL
Tear Mucin ([1]; 2.5% topical 1× daily Days 5-21, Day 28 (7 days after treatment stopped)): 3.0 ± 1.1 ng/µL
Schirmer's Test ([2]; 1.0% topical 1× daily Days 5-21, Day 20): 6.8 ± 0.8 mm
Schirmer's Test ([2]; 2.5% topical 1× daily Days 5-21, Day 7): 9.1 ± 1.9 mm
Schirmer's Test ([2]; 2.5% topical 1× daily Days 5-21, Day 14): 9.4 ± 1.4 mm

NGF: nerve growth factor (recombinant human), positive control
MAPK activity above basal (p42/44 MAPK; 1 nM): 2.8±0.5 fold
MAPK activity above basal (p42/44 MAPK; 10 nM): 1.7±0.2 fold
Tear Mucin ([1]; 0.00053% topical 1× daily Days 5-21, Day 12): 3.0 ± 2.3 ng/µL
Tear Mucin ([1]; 0.00053% topical 1× daily Days 5-21, Day 19): 6.8 ± 3.8 ng/µL
Tear Mucin ([1]; 0.00053% topical 1× daily Days 5-21, Day 28 (7 days after treatment stopped)): 2.4 ± 2.0 ng/µL
Schirmer's Test ([2]; 0.00053% topical 1× daily Days 5-21, Day 5 (test before first instillation)): 9.2 ± 2.5 mm
Schirmer's Test ([2]; 0.00053% topical 1× daily Days 5-21, Day 7): 7.8 ± 1.4 mm
Schirmer's Test ([2]; 0.00053% topical 1× daily Days 5-21, Day 14): 8.6 ± 2.1 mm
Schirmer's Test ([2]; 0.00053% topical 1× daily Days 5-21, Day 29 (after treatment stopped)): 7.5 ± 2.5 mm
